US20040198653A1, “Pharmaceutical compositions which inhibit proliferation of pituitary adenomas and method of use thereof” (priority 2001, published 2004)
Where a SMILES comes first, the peptide text is derived from it. Bridges are numbered along the chain shown (N, C = ends). [ ]: non-standard residue; d: D form. The star is where a group is joined. Gly(N-2-aminoethyl) = NCCNCC(=O)O; 3Pal = N[C@@H](Cc1cccnc1)C(=O)O; Tic = O=C(O)[C@@H]1Cc2ccccc2CN1; X1 = Nc1ccn(CC(=O)*)c(=O)n1; Abu = CC[C@H](N)C(=O)O; Bn = c1ccc(C*)cc1

Experiments:
[1] = system: pituitary adenoma cells; assay: DNA synthesis: [3H]thymidine incorporation in pituitary adenoma cells; format: cell-based; details: 10^-9 M, 48 h incubation, medium with 10% FBS, pituitary cells from functioning adenomas
Procedure: The effects of SSTR selective agonists and antagonists on pituitary adenoma cell DNA synthesis were assessed by determining the rate of [^3H]thymidine incorporation, as previously described (Davis L, et al., 1994 In: Basic methods in Molecular Biology, 2nd edition, Appleton & Lange, Norwalk, Conn., USA: 611-646, degli Uberti E C, et al., 1991 J Clin Endocrinol Metab 72: 1364-1371).
Approximately 10^5 pituitary cells from two functioning adenomas were plated in quadruplicate wells the day of surgery and treated the day after with SRIF and with Compounds 1, 2, 3, and LANREOTIDE at 10^−9M. After 48 h incubation in a medium supplemented with 10% FBS in the presence of [^3H]thy (1.5 μCi/mL; 87 Ci/mmol) with or without each SRIF analogue. Treatments were renewed by adding fresh analogues to the wells after the first 24 h of incubation, without removing the medium.
After incubation, the cells were washed three times with ice-cold PBS and twice with 10% ice-cold trichloroacetic acid (TCA). TCA-precipitated material was solubilized in 500 μL 0.2 mol/L sodium hydroxide and 0.1% SDS. Cell-associated radioactivity was then counted in a scintillation spectrometer. Results (counts per min per well) were obtained by determining the mean value of at least six experiments in quadruplicate. The viability of cells in control and treated cultures was evaluated by Trypan blue staining.

[2] = system: pituitary adenoma cells; assay: Cell proliferation: CELLTITER 96 Aqueous (MTS/PMS) assay, number of viable cells; format: cell-based; details: 10^-9 M, 48 hours incubation, medium with 10% FBS, absorbance at 490 nm
Procedure: The effects of SSTR selective agonists on pituitary adenoma cell proliferation were assessed by the CELLTITER 96 Aqueous Non-Radioactive Cell Proliferation Assay (Promega, Milano, Italy), a colorimetric method for determining the number of viable cells in proliferation assays. The assay contains solutions of a tetrazolium compound (Owen's reagent; MTS) and an electron coupling reagent (phenazine methosulphate; PMS). MTS is bioreduced by cells into a formazan that is soluble in tissue culture medium. The absorbance of the formazan at 490 nm can be measured directly from 96 well assay plates (Zatelli M C, et al., 2000 J Clin Endocrinol Metab 85: 847-852; Cory A H, et al., 1991 Cancer Commun 3: 207-212). The conversion of MTS into the aqueous soluble formazan is accomplished by dehydrogenase enzymes found in metabolically active cells. The quantity of formazan product as measured by the amount of 490 nm absorbance is directly proportional to the number of living cells in culture.
Briefly, adenoma cells were plated in 96-multiwell plates (2×10^4 cells/well) and incubated for 48 hours in a medium supplemented with 10% FBS in the presence or absence of each SRIF analogue (including in one instance, compounds 2 & 3 together) at a concentration of 10^−9 M. Treatments were renewed by adding fresh analogues to the wells after the first 24 hours of incubation. At the end of the incubation period, 20 μl of a combined MTS/PMS solution was added to each well with a repeating pipette, and the plates were incubated for an additional 4 hours at 37° C. in a humidified 5% CO2 atmosphere. The absorbance at 490 nm was then recorded using an ELISA plate reader (EASIA Reader, Medgenix). Results (absorbance at 490 nm) were obtained by determining the mean value of at least six experiments in eight replicates.

| SMILES | % Reduction [3H]Thymidine [1] | % Reduction Viable Cells [2] |
| --- | --- | --- |
| CC[C@@H]1NC(=O)[C@H](CCCCN)NC(=O)[C@@H](Cc2c[nH]c3ccccc23)NC(=O)[C@H](Cc2ccc(O)cc2)NC(=O)[C@@H]2Cc3ccccc3CN2C(=O)[C@H](Cc2ccccc2)NC1=O [Compound 2, cyclo[Tic-Tyr-D-Trp-Lys-Abu-Phe]] (cyclo([Tic]Y[dW]K[Abu]F)) | 25. % | 12.5% |
| C[C@@H](OCc1ccccc1)[C@H](NC(=O)[C@H]1CSSC[C@@H](NC(=O)CN(CCN)C(=O)Cn2ccc(N)nc2=O)C(=O)N[C@@H](Cc2cccnc2)C(=O)N[C@H](Cc2c[nH]c3ccccc23)C(=O)N[C@@H](CCCCN)C(=O)N1)C(=O)N[C@@H](Cc1ccc(O)cc1)C(N)=O [Compound 1, Caeg-c(D-Cys-Pal-D-Trp-Lys-D-Cys)-Thr(Bzl)-Tyr-NH2] (X1-[Gly(N-2-aminoethyl)][dC][3Pal][dW]K[dC]T(Bn)Y-NH2; disulfide 2-6) |  | 28.5% |
| C[C@@H](O)[C@H](NC(=O)[C@H](Cc1ccccc1)NC(=O)[C@@H](NC(=O)[C@H](CCCCN)NC(=O)[C@@H](Cc1c[nH]c2ccccc12)NC(=O)[C@H](Cc1c[nH]c2ccccc12)NC(=O)[C@H](Cc1ccccc1)NC(=O)[C@H](N)Cc1ccccc1)[C@@H](C)O)C(N)=O [Compound 3, D-Phe-Phe-Trp-D-Trp-Lys-Thr-Phe-Thr-NH2] | 15.5% |  |
| C[C@H](N)C(=O)NCC(=O)N[C@H]1CSSC[C@@H](C(=O)O)NC(=O)[C@H](CO)NC(=O)[C@H]([C@@H](C)O)NC(=O)[C@H](Cc2ccccc2)NC(=O)[C@H]([C@@H](C)O)NC(=O)[C@H](CCCCN)NC(=O)[C@H](Cc2c[nH]c3ccccc23)NC(=O)[C@H](Cc2ccccc2)NC(=O)[C@H](Cc2ccccc2)NC(=O)[C@H](CC(N)=O)NC(=O)[C@H](CCCCN)NC1=O [SRIF, reference compound] |  | 8. % |
| CC(C)[C@@H]1NC(=O)[C@H](CCCCN)NC(=O)[C@@H](Cc2c[nH]c3ccccc23)NC(=O)[C@H](Cc2ccc(O)cc2)NC(=O)[C@@H](NC(=O)[C@H](N)Cc2ccc3ccccc3c2)CSSC[C@@H](C(=O)N[C@H](C(N)=O)[C@@H](C)O)NC1=O [LANREOTIDE, D-Nal-cyclo[Cys-Tyr-D-Trp-Lys-Val-Cys]-Thr-NH2, reference compound] | 25. % | 12. % |
